According to ChEMBL document CHEMBL1201861, “Genomics of Drug Sensitity in Cancer screening data, Wellcome Trust Sanger Institute”:

How the values were obtained:
Assay in all cases: cells
K5 = type: functional, cell-based, Homo sapiens; conditions: Homo sapiens, K5
Description: SANGER: Inhibition of human K5 cell growth in a cell viability assay.

NCI-H1355 = type: functional, cell-based, Homo sapiens; conditions: Homo sapiens, NCI-H1355;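 further: growth inhibition of human NCI-H1355 cells, read out by a cell viability assay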
Description: SANGER: Inhibition of human NCI-H1355 cell growth in a cell viability assay.

MZ2-MEL = type: functional, cell-based, Homo sapiens; conditions: Homo sapiens, MZ2-MEL;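 further: growth inhibition of MZ2-MEL cells read out with a cell viability assay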
Description: SANGER: Inhibition of human MZ2-MEL cell growth in a cell viability assay.

BE-13 = type: functional, cell-based, Homo sapiens; conditions: Homo sapiens, BE-13;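 further: growth inhibition of human BE-13 cells, measured with a cell viability assay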
Description: SANGER: Inhibition of human BE-13 cell growth in a cell viability assay.

SW 954 = type: functional, cell-based, Homo sapiens; conditions: Homo sapiens, SW 954;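 further: growth inhibition of SW954 human cancer cells, read out as cell viability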
Description: SANGER: Inhibition of human SW954 cell growth in a cell viability assay.

NB69 = type: functional, cell-based, Homo sapiens; conditions: Homo sapiens, NB69;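 further: growth inhibition of NB69 cells, determined by a cell viability assay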
Description: SANGER: Inhibition of human NB69 cell growth in a cell viability assay.

NCI-H1155 = type: functional, cell-based, Homo sapiens; conditions: Homo sapiens, NCI-H1155;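 further: cell growth inhibition measured by a viability assay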
Description: SANGER: Inhibition of human NCI-H1155 cell growth in a cell viability assay.

TE-10 = type: functional, cell-based, Homo sapiens; conditions: Homo sapiens, TE-10;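 further: growth inhibition of TE-10 cells, measured by a cell viability assay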
Description: SANGER: Inhibition of human TE-10 cell growth in a cell viability assay.

IST-MES1 = type: functional, cell-based, Homo sapiens; conditions: Homo sapiens, IST-MES1;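 further: growth inhibition of IST-MES1 cells, measured with a cell viability assay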
Description: SANGER: Inhibition of human IST-MES1 cell growth in a cell viability assay.

DU-4475 = type: functional, cell-based, Homo sapiens; conditions: Homo sapiens, DU-4475
Description: SANGER: Inhibition of human DU-4475 cell growth in a cell viability assay.

U-87 MG = type: functional, cell-based, Homo sapiens, U-87MG ATCC; conditions: Homo sapiens, U-87 MG;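 further: growth inhibition of the cells measured with a viability assay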
Description: SANGER: Inhibition of human U-87-MG cell growth in a cell viability assay.

EW-3 = type: functional, cell-based, Homo sapiens; conditions: Homo sapiens, EW-3;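 further: cell viability assay read-out, IC50 reflects inhibition of growth of the EW-3 cells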
Description: SANGER: Inhibition of human EW-3 cell growth in a cell viability assay.

DOHH-2 = type: functional, cell-based, Homo sapiens; conditions: Homo sapiens, DOHH-2;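 further: growth inhibition of human DOHH-2 cells, read out with a cell viability assay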
Description: SANGER: Inhibition of human DOHH-2 cell growth in a cell viability assay.

BB30-HNC = type: functional, cell-based, Homo sapiens; conditions: Homo sapiens, BB30-HNC;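 further: growth inhibition of the cultured cell line, read out by a cell viability assay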
Description: SANGER: Inhibition of human BB30-HNC cell growth in a cell viability assay.

ES3 = type: functional, cell-based, Homo sapiens; conditions: Homo sapiens, ES3;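 further: growth inhibition of ES3 cells, read out with a cell viability assay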
Description: SANGER: Inhibition of human ES3 cell growth in a cell viability assay.

C2BBe1 = type: functional, cell-based, Homo sapiens; conditions: Homo sapiens, C2BBe1;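 further: growth inhibition of C2BBe1 cells, read out through a viability assay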
Description: SANGER: Inhibition of human C2BBe1 cell growth in a cell viability assay.

JAR = type: functional, cell-based, Homo sapiens; conditions: Homo sapiens, JAR;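 further: growth inhibition of human JAR cells determined with a cell viability assay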
Description: SANGER: Inhibition of human JAR cell growth in a cell viability assay.

NCI-H209 = type: functional, cell-based, Homo sapiens; conditions: Homo sapiens, NCI-H209;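 further: growth inhibition of human NCI-H209 cells, measured by a cell viability assay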
Description: SANGER: Inhibition of human NCI-H209 cell growth in a cell viability assay.

GCIY = type: functional, cell-based, Homo sapiens; conditions: Homo sapiens, GCIY;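 further: growth inhibition of the human GCIY cell line, read out by a cell viability assay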
Description: SANGER: Inhibition of human GCIY cell growth in a cell viability assay.

EW-1 = type: functional, cell-based, Homo sapiens; conditions: Homo sapiens, EW-1;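 further: growth inhibition of the human EW-1 cell line, read out by a cell viability assay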
Description: SANGER: Inhibition of human EW-1 cell growth in a cell viability assay.

KNS-42 = type: functional, cell-based; conditions: Homo sapiens;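 further: growth inhibition of KNS-42 cells, read out with a cell viability assay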
Description: SANGER: Inhibition of human KNS-42 cell growth in a cell viability assay.

NB6 = type: functional, cell-based, Homo sapiens; conditions: Homo sapiens, NB6
Description: SANGER: Inhibition of human NB6 cell growth in a cell viability assay.

MV4-11 = type: functional, cell-based, Homo sapiens, MV-4-11; conditions: Homo sapiens, MV4-11;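 further: cell viability readout measuring growth inhibition of human MV-4-11 cells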
Description: SANGER: Inhibition of human MV-4-11 cell growth in a cell viability assay.

L-428 = type: functional, cell-based, Homo sapiens; conditions: Homo sapiens, L-428
Description: SANGER: Inhibition of human L-428 cell growth in a cell viability assay.

A253 cell line = type: functional, cell-based, Homo sapiens; conditions: Homo sapiens, A253;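 further: growth inhibition of A253 cells, read out with a cell viability assay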
Description: SANGER: Inhibition of human A253 cell growth in a cell viability assay.

DMS-114 = type: functional, cell-based, Homo sapiens; conditions: Homo sapiens, DMS-114
SJSA-1 = type: functional, cell-based, Homo sapiens; conditions: Homo sapiens, SJSA-1;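 further: growth inhibition of human SJSA-1 cells, read out through a cell viability measurement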
Description: SANGER: Inhibition of human SJSA-1 cell growth in a cell viability assay.

HDLM-2 = type: functional, cell-based, Homo sapiens; conditions: Homo sapiens, HDLM-2;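 further: cell viability assay measuring suppression of HDLM-2 proliferation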
Description: SANGER: Inhibition of human HDLM-2 cell growth in a cell viability assay.

NCI-H720 = type: functional, cell-based, Homo sapiens; conditions: Homo sapiens, NCI-H720;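 further: growth inhibition of human NCI-H720 cells determined by a cell viability assay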
Description: SANGER: Inhibition of human NCI-H720 cell growth in a cell viability assay.

SNU-5 = type: functional, cell-based, Homo sapiens; conditions: Homo sapiens, SNU-5;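 further: cell viability readout used to measure growth inhibition in human NCI-SNU-5 cells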
Description: SANGER: Inhibition of human NCI-SNU-5 cell growth in a cell viability assay.

NEC8 = type: functional, cell-based, Homo sapiens; conditions: Homo sapiens, NEC8;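 further: growth inhibition of human NEC8 cells, read out by a cell viability assay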
Description: SANGER: Inhibition of human NEC8 cell growth in a cell viability assay.

A388 = type: functional, cell-based; conditions: Homo sapiens;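 further: growth inhibition of human A388 cells, read out with a cell viability assay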
Description: SANGER: Inhibition of human A388 cell growth in a cell viability assay.

MSTO-211H = type: functional, cell-based, Homo sapiens; conditions: Homo sapiens, MSTO-211H
Description: SANGER: Inhibition of human MSTO-211H cell growth in a cell viability assay.

KP-N-YS = type: functional, cell-based, Homo sapiens; conditions: Homo sapiens, KP-N-YS;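 further: cell viability assay measuring inhibition of cell line growth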
Description: SANGER: Inhibition of human KP-N-YS cell growth in a cell viability assay.

CW-2 = type: functional, cell-based, Homo sapiens; conditions: Homo sapiens, CW-2;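 further: growth inhibition of CW-2 cells, read out by a cell viability assay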
Description: SANGER: Inhibition of human CW-2 cell growth in a cell viability assay.

MC116 = type: functional, cell-based, Homo sapiens; conditions: Homo sapiens, MC116;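 further: growth inhibition of MC116 cells, read out with a cell viability assay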
Description: SANGER: Inhibition of human MC116 cell growth in a cell viability assay.

NCI-H82 = type: functional, cell-based, Homo sapiens; conditions: Homo sapiens, NCI-H82;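 further: growth inhibition of NCI-H82 cells, measured with a cell viability readout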
Description: SANGER: Inhibition of human NCI-H82 cell growth in a cell viability assay.

SK-N-FI = type: functional, cell-based, Homo sapiens; conditions: Homo sapiens, SK-N-FI;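 further: cell viability assay measuring growth inhibition of human SK-N-FI cells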
Description: SANGER: Inhibition of human SK-N-FI cell growth in a cell viability assay.

NB13 = type: functional, cell-based, Homo sapiens; conditions: Homo sapiens, NB13;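 further: cell viability readout measuring growth inhibition of human NB13 cells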
Description: SANGER: Inhibition of human NB13 cell growth in a cell viability assay.

UACC-257 = type: functional, cell-based, Homo sapiens; conditions: Homo sapiens, UACC-257
Description: SANGER: Inhibition of human UACC-257 cell growth in a cell viability assay.

CGTH-W-1 = type: functional, cell-based, Homo sapiens; conditions: Homo sapiens, CGTH-W-1;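 further: growth inhibition of human CGTH-W-1 cells measured by cell viability assay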
Description: SANGER: Inhibition of human CGTH-W-1 cell growth in a cell viability assay.

BB65-RCC = type: functional, cell-based, Homo sapiens; conditions: Homo sapiens, BB65-RCC;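 further: growth inhibition of the cell line, measured with a cell viability assay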
Description: SANGER: Inhibition of human BB65-RCC cell growth in a cell viability assay.

EM-2 = type: functional, cell-based, Homo sapiens; conditions: Homo sapiens, EM-2;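 further: growth inhibition of EM-2 cells, read out with a cell viability assay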
Description: SANGER: Inhibition of human EM-2 cell growth in a cell viability assay.

HCC2218 = type: functional, cell-based, Homo sapiens; conditions: Homo sapiens, HCC2218;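 further: cell viability assay read-out, with IC50 given as the concentration that inhibits growth of the cell line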
Description: SANGER: Inhibition of human HCC2218 cell growth in a cell viability assay.

SK-NEP-1 = type: functional, cell-based, Homo sapiens; conditions: Homo sapiens, SK-NEP-1;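 further: growth inhibition of human SK-NEP-1 cells, read out by a cell viability assay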
Description: SANGER: Inhibition of human SK-NEP-1 cell growth in a cell viability assay.

A498 = type: functional, cell-based, Homo sapiens; conditions: Homo sapiens, A498;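 further: growth inhibition of human A498 cells, read out with a cell viability assay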
Description: SANGER: Inhibition of human A498 cell growth in a cell viability assay.

SNU-C2B = type: functional, cell-based; conditions: Homo sapiens;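 further: cell viability readout used to measure compound-driven suppression of SNU-C2B cell proliferation, IC50 marking half-maximal growth inhibition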
Description: SANGER: Inhibition of human SNU-C2B cell growth in a cell viability assay.

HCE-4 = type: functional, cell-based; conditions: Homo sapiens;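 further: cell viability assay measuring inhibition of growth in the human HCE-4 cell line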
Description: SANGER: Inhibition of human HCE-4 cell growth in a cell viability assay.

TGBC24TKB = type: functional, cell-based; conditions: Homo sapiens;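 further: growth inhibition of human TGBC24TKB cells, read out with a cell viability assay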
Description: SANGER: Inhibition of human TGBC24TKB cell growth in a cell viability assay.

SW982 = type: functional, cell-based; conditions: Homo sapiens;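 further: growth inhibition of SW982 cells, read out with a cell viability assay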
Description: SANGER: Inhibition of human SW982 cell growth in a cell viability assay.

Measured: IC50

Nc1ccccc1NC(=O)c1ccc(CNC(=O)OCc2cccnc2)cc1 [ENTINOSTAT]
1.68 µM: HDLM-2
2.17 µM: NCI-H720
2.12 µM: NCI-H1355
0.598 µM: NB69
0.76 µM: SW 954
0.53 µM: MV4-11
1.2 µM: SK-NEP-1
2.77 µM: EW-1
0.135 µM: NEC8
1.52 µM: SJSA-1 | A388
3.45 µM: SK-N-FI
1.39 µM: BB30-HNC
1.17 µM: HCC2218
3.04 µM: U-87 MG
0.878 µM: JAR
2.49 µM: L-428
0.587 µM: DU-4475
1.63 µM: NCI-H82
3.18 µM: IST-MES1
3.71 µM: NCI-H1155
0.241 µM: EM-2
3.56 µM: NB6
1.48 µM: MSTO-211H
3.44 µM: UACC-257
1.44 µM: MC116
0.47 µM: K5
0.497 µM: BE-13
2.42 µM: CGTH-W-1
0.658 µM: CW-2
0.668 µM: NB13
3.98 µM: BB65-RCC
0.406 µM: NCI-H209
not listed: A498 | SNU-C2B | HCE-4 | TGBC24TKB | SW982
> 5 µM: all other assays above

COc1ccc(N(C(=O)Oc2c(C)cccc2C)c2ccnc(Nc3ccc(N4CCN(C)CC4)cc3)n2)c(OC)c1
4.92 µM: KP-N-YS
2.86 µM: MC116
0.858 µM: SW982
< 0.02 µM: DOHH-2 | EM-2
4.7 µM: BB65-RCC
3.09 µM: MZ2-MEL
0.372 µM: SW 954
1.85 µM: BB30-HNC
1.04 µM: TGBC24TKB
4.88 µM: NCI-H1355
4.28 µM: TE-10
2.79 µM: DMS-114
0.189 µM: A498
0.357 µM: IST-MES1
1.7 µM: NB6
1.23 µM: GCIY
> 5.12 µM: all other assays above

Cc1ccc(NC(=O)c2ccc(CN3CCN(C)CC3)cc2)cc1Nc1nccc(-c2cccnc2)n1 [IMATINIB]
0.384 µM: CGTH-W-1
0.0888 µM: EM-2
not listed: UACC-257
> 2 µM: all other assays above

NC(=O)c1cccc(-c2cc(Nc3ccc(OC(F)(F)F)cc3)ncn2)c1
0.235 µM: EM-2
> 1.28 µM: all other assays above

C=CC(=O)N1CCCC(Nc2nc(Nc3ccc(N(C)C(=O)CC)cc3)nc3[nH]cnc23)C1 (centres undefined)
2.39 µM: MV4-11
7.41 µM: A388
3.41 µM: BB30-HNC
2.56 µM: SW 954
> 10.2 µM: all other assays above
